Values of other authors in patent publication US11185497B2, “Intranasal delivery of dihydroergotamine by precision olfactory device” (Impel Neuropharma, Inc., priority 2018, dated 2021).

Settings: in vivo

## CN1C[C@H](C(=O)N[C@]2(C)O[C@@]3(O)[C@@H]4CCCN4C(=O)[C@H](Cc4ccccc4)N3C2=O)C[C@@H]2c3cccc4[nH]cc(c34)C[C@H]21 [DHE, Dihydroergotamine]
  oral bioavailability: poor
